The target of the test is T1, DENV NS2B-NS3 protease (Dengue virus type 2, UniProt P29990).
T1 construct: plasmid construct CF40-Gly-NS3pro185; made in house; host or cells: E. coli
Kind of test: NS2B-NS3 protease steady-state kinetic inhibition assay (Boc-GRR-AMC substrate, Dynafit global fit). In kind it is biochemical, DEN2V (dengue virus serotype 2). The following applies: 100 nM NS2B-NS3, cleavage buffer pH 9.5, 25° C., two inhibitor concentrations. Here is the method: The DEN2V protease (plasmid construct CF40-Gly-NS3pro185 (Li et al., The Journal of Biological Chemistry, 280, 28766-28774, 2005)) was expressed in E. coli largely following the previously described protocol (Li et al., The Journal of Biological Chemistry, 280, 28766-28774, 2005), although cell growth was continued for 6 hrs at 25° C. following addition of 0.4 mM IPTG (isopropyl-D-thiogalactopyranoside). Purification was as described previously (Li et al., The Journal of Biological Chemistry, 280, 28766-28774, 2005) using metal affinity chromatography. Purified, concentrated NS2B-NS3pro was stored at −80° C. in cleavage buffer (200 mM Tris pH 9.5, 20% glycerol). The activity of the dengue protease was not impacted by a freeze/thaw cycle (data not shown).
Small molecules identified by virtual screening as potential DEN2V protease inhibitors were tested for inhibition activity using NS2B-NS3 protease steady-state kinetic assays as described previously (Li et al., The Journal of Biological Chemistry, 280, 28766-28774, 2005). Briefly, compounds identified in virtual screening experiments were received from established chemical vendors and tested for solubility at 10 mM in DMSO and upon 100-fold dilution from DMSO into cleavage buffer (i.e., 100 μM final compound concentration in 1% DMSO). […] Sequential 10-fold serial dilutions were used to determine the limits of solubility in cleavage buffer as necessary.
Preliminary single-point inhibition assays (Li et al., The Journal of Biological Chemistry, 280, 28766-28774, 2005) were used to check the inhibition activity of compounds using 100 nM NS2B-NS3 and 100 μM substrate Boc-GRR-AMC in cleavage buffer for 30 minutes at 25° C. Fluorescence measurements (lem=465 nm, lex=380 nm) were performed in duplicate on a Fluorolog FL3-22 spectrofluorometer (Horiba Jobin Yvon) and corrected for compound absorption and emission. […] Two inhibitor concentrations were tested. Fluorescence measurements were recorded at 5 minutes intervals from 0 to 30 minutes; fluorescence intensities were converted to AMC product concentrations using calibration curves established with each compound concentration. Each kinetic study was performed in duplicate, and all experiments were repeated three times to ensure all measured parameters were reproducible in independent experiments. Initial velocities at each substrate concentration were calculated from linear curve fits of AMC production per time. The program Dynafit (Biokin, Watertown, Mass.) (Kuzmic, Anal. Biochem., 237, 260-273, 1996) was used to determine Michalen-Menten inhibition model and kinetic parameters that produced the best global fits to the measured velocity versus substrate kinetic data.
These compounds were advanced to detailed kinetic inhibition assays to determine mechanisms of inhibition and inhibition constants. All experiments were performed using two different inhibitor concentrations and a no inhibitor control. Kinetic parameters and inhibition constants were calculated using a generalized Michaelis-Menten model (FIG. 4) and global fitting to all collected velocity versus substrate concentration data (Table 1). […] Further study will be required to determine whether a particular mechanism of inhibition might be advantageous in regard to efficacy against virus replication and/or delay of escape mutants.

The mark [1] stands for this setting: read-out: Inhibition constant Ki2 (binding to enzyme-substrate ES complex).
The mark [2] stands for this setting: read-out: Inhibition constant Ki1 (competitive component, binding to enzyme).
Setting [3] is: read-out: Inhibition constant Ki3 (binding to ES2 complex).
Where [4] appears, read: Inhibition constant Ki1 (competitive component, binding to enzyme).

SMILES strings stand for the structures. Like-named read-outs stand apart in the source and are kept apart here.

T1 sequence (P29990 1476-1653): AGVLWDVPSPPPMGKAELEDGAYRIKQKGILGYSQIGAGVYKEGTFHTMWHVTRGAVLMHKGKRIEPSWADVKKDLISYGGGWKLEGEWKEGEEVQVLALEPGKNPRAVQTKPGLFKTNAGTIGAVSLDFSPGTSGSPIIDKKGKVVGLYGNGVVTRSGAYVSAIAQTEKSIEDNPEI

In the case of `NS(=O)(=O)c1cccc(-c2ccc([C@H]3Nc4ccccc4-c4nc5ccccc5n43)o2)c1` [ZINC01032664], the Ki under setting [1] worked out at 56 µM. For `Cc1nn(-c2ccccc2)nc1C(=O)Nc1nnc(Sc2ccnc3cc(Cl)ccc23)s1` [ZINC08647752], the Ki came to 60 µM under setting [2] and 14 µM under setting [3]. For the molecule `Cn1c(=O)c2cc3ccccc3nc2c2c(=O)n(-c3ccccc3)c(=O)n(-c3ccccc3)c21` [ZINC01042004], under setting [1], the Ki was determined as 28 µM. On to `O=C1[C@H]2CSC3(C(=O)c4ccccc4C3=O)N2C(=O)[C@H]2CSC3(C(=O)c4ccccc4C3=O)N12` [ZINC03129319], for which the Ki came to 92 µM under setting [4] and 20 µM (Inhibition constant Ki3 (binding to ES2 complex)).

For `Cc1ccc(S(=O)(=O)Nc2ccc(Cn3cnc(-c4nc(-c5cccc(C)c5)no4)c3)cc2)cc1` [ZINC32974777], the Ki runs as follows: under setting [2], 106 µM; under setting [1], 21 µM. On to `O=C(Nc1cccc(-c2nnc(Cc3ccc4c(c3)OCO4)o2)c1)Nc1ccc2c(c1)CCC2` [ZINC21359030], for which the Ki under setting [1] is 4 µM. As for `Cc1ccc(-n2ncc3c2CC(C)(C)C[C@@H]3NC(=O)c2cn(C)c3ccccc3c2=O)cc1` [ZINC12702527], the Ki stood at 288 µM under setting [2] and 421 µM under setting [1]. Taken in the same sequence, the figures for `Cc1ccn2c(=O)cc(COc3cc(NC(=O)Nc4ccc5c(c4)OCCO5)ccc3C)nc2c1` [ZINC33068105] were 39 µM and 4 µM. For `O=C(NNC(=NS(=O)(=O)c1ccccc1)NNC(=O)c1cccc(Cl)c1)c1cccc(Cl)c1` [ZINC12339756], under setting [3], the Ki amounted to 64 µM.

With `c1ccc2c(-c3nnc(-c4ccc5nccnc5c4)o3)cccc2c1` [ZINC00156657], the Ki is, setting by setting: under setting [2], 95 µM; under setting [1], 45 µM. As to `c1ccc(CSc2nnc3nc4c5ccccc5c5ccccc5c4nn23)cc1` [ZINC03120327], the Ki amounted to 42 µM under setting [4] and 21 µM (Inhibition constant Ki2 (binding to enzyme-substrate ES complex)). Consider `O=C1Cc2ccc(F)cc2C[C@@H]1C1=Cc2ccc(F)cc2CC1` [ZINC04321905], for which the Ki under setting [2] is 85 µM.

Values taken from patent US9408813B2, “Small-molecule inhibitors of dengue virus proteases” (THE BOARD OF REGENTS OF THE UNIVERSITY OF TEXAS SYSTEM, priority 2013, dated 2016).
